Data: publication PMC9855333, “1-(Arylsulfonyl-isoindol-2-yl)piperazines as 5-HT6R Antagonists: Mechanochemical Synthesis, In Vitro Pharmacological Properties and Glioprotective Activity” (Biomolecules, 2022)

Legend:
Type in all cases: cell-based
5-HT6R [1] = molecular target: T1, 5-HT6R (Homo sapiens, UniProt P50406); test: Inhibition of 5-CT-induced cAMP production in 1321N1 cells (LANCE TR-FRET); design: host or cells: 1321N1 (frozen recombinant cells); conditions: 5-CT as agonist, mean ± SEM, three independent experiments
T1 sequence (P50406 whole entry): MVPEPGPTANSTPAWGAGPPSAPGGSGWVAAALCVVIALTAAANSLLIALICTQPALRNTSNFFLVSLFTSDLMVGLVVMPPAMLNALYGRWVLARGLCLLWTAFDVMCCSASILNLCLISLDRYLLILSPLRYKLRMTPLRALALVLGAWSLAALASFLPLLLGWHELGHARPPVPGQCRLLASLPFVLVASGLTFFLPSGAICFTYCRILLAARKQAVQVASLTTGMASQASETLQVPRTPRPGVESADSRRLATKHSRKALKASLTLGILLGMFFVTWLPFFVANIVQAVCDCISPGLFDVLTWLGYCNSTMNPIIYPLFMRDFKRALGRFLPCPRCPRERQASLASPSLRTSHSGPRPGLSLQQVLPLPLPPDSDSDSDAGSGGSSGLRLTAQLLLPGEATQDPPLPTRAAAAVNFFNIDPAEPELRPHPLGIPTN

[2] = Cytotoxicity, MTT test, HepG2; conditions: human, HepG2 cells (human hepatocellular carcinoma)
Procedure: (§1) Hepatotoxicity, neurotoxicity, and glial cytotoxicity were investigated using the following cellular models: human hepatocellular carcinoma (HepG2), human neuroblastoma (SHSY-5Y), and mouse astrocytes (C8-D1A), all from ATCC (American Type Culture Collection, Manassas, VA, USA). Cells were cultured in appropriate culture media recommended by ATCC supplemented with 10% fetal bovine serum (FBS; Gibco, Life Technologies, Carlsbad, CA, USA) and 1% antibiotic mixture (Gibco, Life Technologies, Carlsbad, CA, USA). Cells were cultured at standard conditions (5% CO2, 95% humidity, 37 °C). For cytotoxicity experiments, cells were seeded into 96 well plates at an initial density of 2000 cells/well. After overnight incubation, cells were treated with 3e, 3f, and 3g in a concentration range of 0.78–50 µM for 48 h; then, an MTT assay was performed as described previously. Briefly, following cell exposure, 10 µL of MTT reagent was added to each well. After the next 4 h, the medium was aspirated, and formazan produced in cells appeared as dark crystals in the bottom of the wells. Next, 100 µL DMSO was added to each well. Then, the optical density of the solution (OD) at 570 nm was determined on a plate reader (Spectra Max iD3, Molecular Devices, San Jose, CA, USA). The experiments were run three times in triplicates.

5-HT6R [3] = molecular target: T1, 5-HT6R; test: Basal cAMP production by constitutively active 5-HT6R in NG108-15 cells (CAMYEL BRET); design: expressed in transfected cells; host or cells: NG108-15 (mouse neuroblastoma x rat glioma hybrid), transient co-transfection with CAMYEL, Lipofectamine 2000; conditions: NG108-15 cells transiently expressing 5-HT6R
Procedure: Changes in cyclic AMP levels upon exposure to increasing concentrations of the tested compounds were assessed by BRET (Bioluminescence Resonance Energy Transfer) measurement using a Mithras LB 940 plate reader (Berthold Technologies), as previously described. A detailed description is reported in the Supporting Information.
2. Procedure for determination of functional activity at Gs signaling
2.1. Impact of compound 3e, 3f and 3g on cAMP production in 1321N1 cells The properties of evaluated compounds to inhibit cAMP production induced by 5-CT (1000 nM), a 5-HT6R agonist, was assessed according to previously published procedures. The level of cAMP was measured using frozen recombinant 1321N1 cells expressing the human serotonin 5-HT6R (PerkinElmer). Total cAMP was measured using the LANCE cAMP detection kit (PerkinElmer), according to the manufacturer's recommendations. For quantification of cAMP levels, 2000 cells/well (5 μL) were incubated with mixture of compound 3e, 3f and 3g (5 μL) for 30 min at room temperature in 384-well white opaque microtiter plate. After incubation, the reaction was stopped and cells were lysed by the addition of 10 μL of working solution (5 μL Eu-cAMP and 5 μL ULight-anti-cAMP) for 1 h at room temperature. Time-resolved fluorescence resonance energy transfer (TR-FRET) was detected by an Infinite M1000 Pro (Tecan) using instrument settings from LANCE cAMP detection kit manual. Compound was tested in triplicate at 8 concentrations (10-11–10-4 M). Kb values were calculated from Cheng–Prusoff equation specific for the analysis of functional inhibition curves:
Kb = IC50/(1+A/EC50) where A represents agonist concentration, IC50 the concentration of antagonist producing a 50% reduction in the response to agonist, and EC50 the agonist concentration which causes a half of the maximal response.
1.1.1. Impact of evaluated compounds on cAMP production elicited by constitutively active […]
BRET was measured using a Mithras LB 940 plate reader (Berthold Technologies). […]

[4] = Cytotoxicity, MTT test, C8-D1A; conditions: mouse, C8-D1A cells (mouse astrocytes)
Procedure: as §1

[5] = tested on: 5-HT6R-operated Cdk5 signaling; test: Cdk5-dependent neurite growth in NG108-15 cells transiently expressing 5-HT6R; conditions: NG108-15 cells expressing 5-HT6R; for neurite length: treatment for 24 h (legend says 48 h), vehicle 16.95 ± 1.5 μm
Procedure: NG108-15 cells were transfected with plasmids encoding either cytosolic GFP or a GFP-tagged 5-HT6R and grown on glass coverslips for 6 h. Then, cells were treated with either vehicle or the evaluated compounds. Neurite growth was measured on cells imaged using an AxioImagerZ1 microscope equipped with epifluorescence (Zeiss) using the Neuron J plugin of the ImageJ software (NIH). A detailed description is reported in the Supporting Information.
3. Procedure for evaluation of the effect of tested compounds on Cdk5-dependent neurite
In line with previously reported methods, NG108-15 cells were transfected with plasmids encoding either cytosolic GFP or a GFP-tagged 5-HT6R in suspension using Lipofectamine 2000 (Life technologies) and plated on glass coverslips. Six hours after transfection, cells were treated with either DMSO (control), 3e, 3f and 3g or SB-258585 for 48 h. Cells were fixed in 4% paraformaldehyde (PFA) supplemented with 4% sucrose for 10 min. PFA fluorescence was quenched by incubating the cells in PBS containing 0.1 M glycine, prior to mounting in Prolong Gold antifade reagent (Thermo Fisher Scientific). Cells were imaged using an AxioImagerZ1 microscope equipped with epifluorescence (Zeiss), using a 20 × objective for cultured cells, and neurite length was assessed using the Neuron J plugin of the ImageJ software (NIH).

O=S(=O)(c1cccc(N2CCNCC2)c1)N1Cc2ccccc2C1 [3e, 2-{[3-(Piperazin-1-yl)phenyl]sulfonyl}isoindoline]
Kb (5-HT6R [1]): 0.0007 ± 0.0002 µM | IC50 at 48 h [2]: > 50 µM | 5-HT6R Functional Profile at Gs Signaling (5-HT6R [3]): Neutral antagonist | IC50 at 48 h [4]: > 50 µM | neurite length [5]: 11.81 ± 2.61 μm

O=S(=O)(c1cccc(N2CCNCC2)c1)N1Cc2cccc(Cl)c2C1 [3f, 4-Chloro-2-{[3-(piperazin-1-yl)phenyl]sulfonyl}isoindoline]
Kb (5-HT6R [1]): 0.0035 ± 0.0008 µM | IC50 at 48 h [2]: > 50 µM | 5-HT6R Functional Profile at Gs Signaling (5-HT6R [3]): Neutral antagonist | IC50 at 48 h [4]: > 50 µM | neurite length [5]: 10.92 ± 0.89 μm

O=S(=O)(c1cccc(N2CCNCC2)c1)N1Cc2cccc(Br)c2C1 [3g, 4-Bromo-2-{[3-(piperazin-1-yl)phenyl]sulfonyl}isoindoline]
Kb (5-HT6R [1]): 0.0016 ± 0.0003 µM | IC50 at 48 h [2]: > 50 µM | 5-HT6R Functional Profile at Gs Signaling (5-HT6R [3]): Neutral antagonist | IC50 at 48 h [4]: > 50 µM | reduction in neurite growth ([5]; vs vehicle-treated cells): 50% | neurite length [5]: 8.08 ± 0.84 μm | functional profile at the 5-HT6R-elicited Cdk5 pathway ([5]; neurite growth): potent inverse agonist
